Measured values reported in patent US6297242A, “N-substituted amidine and guanidine oxazolidinone antibacterials and methods of use thereof” (Ortho-McNeil Pharmaceutical, Inc., priority 2000, dated 2001).
≈ marks a conversion by molar mass, not a printed value.

Experiments:
E. faecium OC3312 = experiment: NCCLS broth microdilution MIC, E. faecium OC3312; assay type: cell-based; conditions: Enterococcus faecium, cation adjusted Mueller-Hinton broth, 35° C., 16-20 hours
Experimental: (§1) Minimal inhibitory concentration (MIC) has been an indicator of in vitro antibacterial activity widely used in the art. The in vitro antimicrobial activity of the compounds was determined by the microdilution broth method following the test method from the National Committee for Laboratory Standards (NCCLS). This method is described in the NCCLS Document M7-A4, Vol.17, No.2, "Methods for Dilution Antimicrobial Susceptibility Test for Bacteria that Grow Aerobically-Fourth Edition", which is incorporated herein by reference.
(§2) In this method two-fold serial dilutions of drug in cation adjusted Mueller-Hinton broth are added to wells in microdilution trays. The test organisms are prepared by adjusting the turbidity of actively growing broth cultures so that the final concentration of test organism after it is added to the wells is approximately 5×10^4 CFU/well.
(§3) Following inoculation of the microdilution trays, the trays are incubated at 35° C. for 16-20 hours and then read. […] The amount of growth in the wells containing the test compound is compared with the amount of growth in the growth-control wells (no test compound) used in each tray. As set forth in Table 1, compounds of the present invention were tested against a variety of Gram positive and Gram negative pathogenic bacteria resulting in a range of activities, from 1 to ≥128 μg/mL depending on the organism tested.

MRSA OC2878 = experiment: NCCLS broth microdilution MIC, MRSA OC2878; assay type: cell-based, methicillin-resistant Staphylococcus aureus; conditions: Staphylococcus aureus, cation adjusted Mueller-Hinton broth, 35° C., 16-20 hours
Experimental: as §1, §2, §3

S. aureus OC4172 = experiment: NCCLS broth microdilution MIC, S. aureus OC4172; assay type: cell-based; conditions: Staphylococcus aureus, cation adjusted Mueller-Hinton broth, 35° C., 16-20 hours
Experimental: as §1, §2, §3

| MIC (E. faecium OC3312) [µg/mL] | MIC (MRSA OC2878) [µg/mL] | MIC (S. aureus OC4172) [µg/mL] | Compound |
| --- | --- | --- | --- |
| > 128 | 128 (≈ 381 µM) | > 128 | CC(=N)NC[C@H]1CN(c2ccc(N3CCOCC3)c(F)c2)C(=O)O1 [Cmpd 6] |
| 32 (≈ 85 µM) | 32 (≈ 85 µM) | 16 (≈ 42.5 µM) | CN=C(NC#N)NC[C@H]1CN(c2ccc(N3CCOCC3)c(F)c2)C(=O)O1 [Cmpd 1, N-Cyano-N'-[[(5S)-3-[3-fluoro-4-(4-morpholinyl)phenyl]-2-oxo-5-oxazolidinyl]methyl]-N"-methylguanidine] |
| 64 (≈ 164 µM) | 32 (≈ 82 µM) | 16 (≈ 41 µM) | CN(C)C(=NC#N)NC[C@H]1CN(c2ccc(N3CCOCC3)c(F)c2)C(=O)O1 [Cmpd 4, N-Cyano-N'-[[(5S)-3-[3-fluoro-4-(4-morpholinyl)phenyl]-2-oxo-5-oxazolidinyl]methyl]-N", N"-dimethylguanidine] |
| 64 (≈ 169 µM) | 16 (≈ 42.3 µM) | 32 (≈ 84.6 µM) | CC(=O)N=C(C)NC[C@H]1CN(c2ccc(N3CCOCC3)c(F)c2)C(=O)O1 [Cmpd 7, N-Acetyl-N'-[[(5S)-3-[3-fluoro-4-(4-morpholinyl)phenyl]-2-oxo-5-oxazolidinyl]methyl]acetimidate] |
| 8 (≈ 20.3 µM) | 4 (≈ 10.2 µM) | 4 (≈ 10.2 µM) | CSC(=NC#N)NCC1CN(c2ccc(N3CCOCC3)c(F)c2)C(=O)O1 (stereo in doubt) [Cmpd 3, N-Cyano-N'-[[(5S)-3-[3-fluoro-4-(4-morpholinyl)phenyl]-2-oxo-5-oxazolidinyl]methyl]carbamimidothioic acid, methyl ester] |
| 8 (≈ 20.5 µM) | 8 (≈ 20.5 µM) | 8 (≈ 20.5 µM) | CCCC(=NC#N)NC[C@H]1CN(c2ccc(N3CCOCC3)c(F)c2)C(=O)O1 [Cmpd 5, N-Cyano-N'-[[(5S)-3-[3-fluoro-4-(4-morpholinyl)phenyl]-2-oxo-5-oxazolidinyl]methyl]butyrimidate] |
| 2 (≈ 5.53 µM) | 1 (≈ 2.77 µM) | 2 (≈ 5.53 µM) | CC(=NC[C@H]1CN(c2ccc(N3CCOCC3)c(F)c2)C(=O)O1)NC#N [Cmpd 2, N-Cyano-N'-[[(5S)-3-[3-fluoro-4-(4-morpholinyl)phenyl]-2-oxo-5-oxazolidinyl]methyl]ethanimidamide] |
